A short description of data set [1]: in vitro. The note with it: human, liver microsomes. For orientation: Liver microsomes are vesicles of endoplasmic reticulum, rich in cytochrome P450 enzymes.
The nature of data set [2]: physchem. Particulars: octan-1-ol/water.
A short description of data set [3]: physchem. The note with it: pH 7.4 buffer.
Data set [4] can be described thus: in vitro. Particulars: human, plasma.

The microsomal CLint is the rate of metabolic loss divided by the concentration. Low values mean greater metabolic stability, high ones faster metabolism. A word on the logD: it is the decadic logarithm of the distribution of all forms, ionised or not, between an organic phase and buffer at a given pH. Read a high logD as higher lipophilicity. The term thermodynamic solubility denotes solubility found after equilibrating the solid with the medium. Usually fraction unbound stands for the share of the substance not bound to proteins or other matrix. Read a high fraction unbound as much free substance.

Converted amounts (≈) assume the structure as drawn. A value given as a limit tells only on which side of the number the result lay.

`CCCCc1nc2c(N)nc3ccccc3c2n1CC(C)(C)O` gave a microsomal CLint in “in vitro [1]” below 3 µL/min/mg.
`Cc1ccc(CO)cc1N(C)c1ccnc(Nc2cc(N3CCCOCC3)cc(N3CCOCC3)c2)n1` gave a logD in the data set “physchem [2]” (pH 7.4, LogD7.4) of 3.3. In the data set “physchem [3]”, this molecule yielded a solubility (thermodynamic) of 91.2 µM (≈ 46 µg/mL). The fraction unbound at 5 h in the data set “in vitro [4]” (PPB) was 0.0556.
`O=C(O)COc1ccc(Br)cc1-c1ccccc1` showed a microsomal CLint in the data set “in vitro [1]” below 3 µL/min/mg.
Still for that read-out and setting: then `CCS(=O)(=O)c1ccc(-c2cc(C(F)(F)F)ccc2OCC(N)=O)c(C)c1`, with below 3 µL/min/mg; and `CN(C(=O)Cc1ccc(S(N)(=O)=O)cc1)C1CCN(CCC(c2ccccc2)c2ccccc2)CC1`, with 12 µL/min/mg.
In “in vitro [1]”, `Cc1ccc(NC(=O)c2cccc(N3CCOCC3)c2)cc1NC(=O)c1ccc(OCc2ccccn2)cc1` yielded a microsomal CLint of 30.3 µL/min/mg.
On to `Cc1c(Sc2ccc(Cl)cc2)c2cccc(Cl)c2n1CC(=O)O`, for which, in the data set “in vitro [1]”, the microsomal CLint was below 3 µL/min/mg.
Molecule `Cc1c(Sc2ccc(Cl)cc2)c2ccc(Cl)cc2n1CC(=O)O` displayed a microsomal CLint in “in vitro [1]” below 3 µL/min/mg.
Turning to `Cc1c(Sc2ccc(Cl)cc2)c2c(C#N)c(Cl)ccc2n1CC(=O)O`, the microsomal CLint in “in vitro [1]” is 4 µL/min/mg.
The same measure, in the same setting: for `CC(=O)Nc1ccc2c(c1)c(Sc1ccc(Cl)cc1)c(C)n2CC(=O)O` the value was 36 µL/min/mg.
On the same count and under the same terms, then `Cc1c(Sc2ccc(Cl)cc2)c2c(-c3ccccc3)cccc2n1CC(=O)O`, with below 3 µL/min/mg; and `Cc1c(Sc2ccc(Cl)cc2)c2cc(-c3ccccc3)ccc2n1CC(=O)O`, with 16 µL/min/mg.
For `COc1ccc(Sc2c(C)n(CC(=O)O)c3ccc(C)cc23)cc1`, the microsomal CLint in “in vitro [1]” was below 3 µL/min/mg.
Molecule `Cc1ccc(NC(=O)c2ccc(C#N)cc2)cc1-n1cnc2ccc(N3CCN(C)CC3)cc2c1=O` had a logD in the data set “physchem [2]” (pH 7.4, LogD7.4) of 2.73. Also, in “physchem [3]”, the thermodynamic solubility came out at 32.4 µM (≈ 15.5 µg/mL). In addition, in “in vitro [4]” (PPB), the free fraction (fraction unbound) at 5 h was 0.319.
As to `Cc1ccc(NC(=O)c2ccno2)cc1-n1cnc2ccc(N3CCN(C)CC3)cc2c1=O`, in “in vitro [1]”, the microsomal CLint was below 3 µL/min/mg.
As to `Cc1ccc(NC(=O)c2cscn2)cc1-n1cnc2ccc(N3CCN(C)CC3)cc2c1=O`, the microsomal CLint in the data set “in vitro [1]” was below 3 µL/min/mg.
`Cc1ccc(CCNC(=O)c2ccc3sc(CO)nc3c2)cc1` registered a thermodynamic solubility in “physchem [3]” of 16.2 µM (≈ 5.29 µg/mL). In the data set “in vitro [4]” (PPB), this molecule showed a free fraction (fraction unbound) at 5 h of 0.0293.
As for `N#Cc1cccc(C[C@@H](C(=O)O)N2CCC(CN3CCC(Oc4ccc(Cl)c(Cl)c4)CC3)CC2)c1`, in the data set “in vitro [1]”, the microsomal CLint was below 3 µL/min/mg.
Still for that read-out and setting: then `O=C(O)[C@H](Cc1ccc(Cl)cc1)N1CCC(CN2CCC(Oc3ccc(Cl)c(Cl)c3)CC2)CC1`, with below 3 µL/min/mg.
The same measure, in the same setting: for `Cc1c(CC(=O)O)c2cc(F)ccc2n1Cc1nc2ccccc2s1` the value was below 3 µL/min/mg.
The molecule `CC(C)Cn1c(=O)n(C)c(=O)c2c(C(=O)N3CC[C@@H](O)C3)c(Cc3ccnc4ccc(F)cc34)sc21` yielded a logD in “physchem [2]” (pH 7.4, LogD7.4) of 1.95. Also, the thermodynamic solubility in “physchem [3]” was 871 µM (≈ 445 µg/mL). Also, in the data set “in vitro [4]” (PPB), the fraction unbound at 5 h was 0.46.
Molecule `COCC[C@H](Oc1ncnc2c1cnn2-c1ccccc1Cl)C(=O)Nc1ccc(C)cn1` yielded a pH-dependent lipophilicity (logD) in the data set “physchem [2]” (pH 7.4, LogD7.4) of 3.6. The thermodynamic solubility in the data set “physchem [3]” came to 100 µM (≈ 45.3 µg/mL). The molecule further showed a fraction unbound at 5 h in “in vitro [4]” (PPB) of 0.0457.
`Cc1c(Cl)ccc(OC2CCN(C[C@H](O)CNC(=O)c3c[nH]c(=O)c4ccc(S(C)(=O)=O)cc34)CC2)c1Cl` had a microsomal CLint in “in vitro [1]” below 3 µL/min/mg.
On to `CC(=O)Nc1ccc(O)cc1OC[C@@H](O)CN1CCC2(CC1)Cc1cc(Cl)ccc1O2`, for which, in the data set “in vitro [1]”, the microsomal CLint was 8 µL/min/mg.
Same read-out and setting: then `N=C(N)c1cc2c(/C=C/c3ccc4c(c3)OCO4)cccc2s1`, with 7 µL/min/mg; and `CCc1nc2c(N)nc3ccccc3c2n1CC(C)(C)O`, with below 3 µL/min/mg.
In turn, `C[C@H](CO)Nc1nc(SCc2cccc(F)c2F)nc2nc(NS(C)(=O)=O)sc12` came in with a pH-dependent lipophilicity (logD) in “physchem [2]” (pH 7.4, LogD7.4) of 0.92. For the same molecule, the thermodynamic solubility in the data set “physchem [3]” amounted to 832 µM (≈ 384 µg/mL). For the same molecule, the fraction unbound at 5 h in the data set “in vitro [4]” (PPB) was 0.0114.
Regarding `NC(=O)c1sc(-c2ccc(Cl)cc2)cc1N`, the microsomal CLint in the data set “in vitro [1]” was 31 µL/min/mg.
`CCC(=O)N1CCN(C(=O)c2cc(Cc3n[nH]c(=O)c4ccccc34)ccc2F)CC1` registered a logD in the data set “physchem [2]” (pH 7.4, LogD7.4) of 1.22. Besides, the thermodynamic solubility in the data set “physchem [3]” came to 251 µM (≈ 106 µg/mL). Besides, the free fraction (fraction unbound) at 5 h in “in vitro [4]” (PPB) was 0.371.
In the data set “in vitro [1]”, `Cc1ccc2c(N)c(C(N)=O)sc2n1` had a microsomal CLint of 13 µL/min/mg.
For `N=C(N)c1cc2c(OCc3ccccc3)cccc2s1`, the microsomal CLint in “in vitro [1]” came to 11 µL/min/mg.
For the molecule `CCc1nc2c(N)nc3ccccc3c2n1CCCCNS(C)(=O)=O` [CPG-52852], the logD in “physchem [2]” (pH 7.4, LogD7.4) came to 1.24. The molecule also had a solubility (thermodynamic) in “physchem [3]” of 537 µM (≈ 194 µg/mL). The fraction unbound at 5 h in the data set “in vitro [4]” (PPB) is 0.334.
Regarding `O=C(NO)C1(CS(=O)(=O)c2ccc(Oc3ccc(Cl)cc3)cc2)CCOCC1` [CTS-1027], in “physchem [3]”, the thermodynamic solubility amounted to 126 µM (≈ 53.6 µg/mL). This molecule showed a free fraction (fraction unbound) at 5 h in the data set “in vitro [4]” (PPB) of 0.02.
For `C[C@]12N[C@H](Cc3ccccc31)c1ccccc12` [DIZOCILPINE], the logD in the data set “physchem [2]” (pH 7.4) worked out at 1.6. The molecule further showed a fraction unbound at 5 h in “in vitro [4]” of 0.529.
On to `CS(=O)(=O)c1ccc([C@@H](O)[C@@H](CF)NC(=O)C(Cl)Cl)cc1` [FLORFENICOL], for which the logD in the data set “physchem [2]” (pH 7.4) stood at 0.44. The fraction unbound at 5 h in “in vitro [4]” was 0.676.
In the case of `CCOC(=O)c1ncn2c1CN(C)C(=O)c1cc(F)ccc1-2` [FLUMAZENIL], the log distribution coefficient (logD) in the data set “physchem [2]” (pH 7.4) stood at 1.1. Moreover, the fraction unbound at 5 h in “in vitro [4]” is 0.443.
In the case of `O=C1OC2(c3ccc(O)cc3Oc3cc(O)ccc32)c2ccccc21` [FLUORESCEIN], the logD in “physchem [2]” (pH 7.4, LogD7.4) is 0. For the same molecule, the fraction unbound at 5 h in “in vitro [4]” (PPB) is 0.19.
In the data set “physchem [2]” (pH 7.4), `COC(=O)[C@H]1[C@@H](c2ccc(I)cc2)C[C@@H]2CC[C@H]1N2CCCF` [IOFLUPANE] registered a logD of 2.3. This molecule had a fraction unbound at 5 h in “in vitro [4]” of 0.201.
As for `Nc1nc(Nc2ccc(S(N)(=O)=O)cc2)nn1C(=O)c1c(F)cccc1F` [JNJ-7706621], the logD in the data set “physchem [2]” (pH 7.4, LogD7.4) was determined as 1.87. For the same molecule, the fraction unbound at 5 h in the data set “in vitro [4]” (PPB) is 0.19.
In the data set “physchem [3]”, `CC(=O)N1CCN(c2ccc(OCC3COC(Cn4ccnc4)(c4ccc(Cl)cc4Cl)O3)cc2)CC1` (centres undefined) [KETOCONAZOLE] returned a thermodynamic solubility of 6.2 µM (≈ 3.29 µg/mL). Moreover, the fraction unbound at 5 h in “in vitro [4]” was 0.028.
In turn, `Cc1c(OCC(F)(F)F)ccnc1C[S+]([O-])c1nc2ccccc2[nH]1` (centres undefined) [LANSOPRAZOLE] showed a logD in the data set “physchem [2]” (pH 7.4) of 2.7. The same molecule had a fraction unbound at 5 h in the data set “in vitro [4]” of 0.016.
For the molecule `COc1c2occc2cc2ccc(=O)oc12` [METHOXSALEN], the logD in the data set “physchem [2]” (pH 7.4, LogD7.4) was found to be 1.97. In the data set “in vitro [4]” (PPB), this molecule showed a free fraction (fraction unbound) at 5 h of 0.0768.
`CC(C)(C(=O)c1cccnc1)c1cccnc1` [METYRAPONE] gave a logD in the data set “physchem [2]” (pH 7.4, LogD7.4) of 1.45. The fraction unbound at 5 h in the data set “in vitro [4]” (PPB) was 0.888.
Regarding `Clc1ccc(C(c2ccccc2)N2CCNCC2)cc1` (centres undefined) [NORCHLORCYCLIZINE], the logD in “physchem [2]” (pH 7.4, LogD7.4) was 1.94. This molecule also gave a fraction unbound at 5 h in the data set “in vitro [4]” (PPB) of 0.0581.
On the same counts, the results for `C1CCC(C(CC2CCCCN2)C2CCCCC2)CC1` (centres undefined) [PERHEXILINE] are 3.02 and 0.0156.
On to `CN(C)CCCN1c2ccccc2Sc2ccccc21` [PROMAZINE], for which the logD in the data set “physchem [2]” (pH 7.4, LogD7.4) amounted to 2.56. The fraction unbound at 5 h in the data set “in vitro [4]” (PPB) was 0.101.
As for `CN(CCOc1ccc(CC2SC(=O)NC2=O)cc1)c1ccccn1` (centres undefined) [ROSIGLITAZONE], the logD in “physchem [2]” (pH 7.4, LogD7.4) was found to be 2.5. For the same molecule, the thermodynamic solubility in the data set “physchem [3]” was 28.2 µM (≈ 10.1 µg/mL). In the data set “in vitro [4]” (PPB), this molecule had a fraction unbound at 5 h of 0.0026.
In the data set “physchem [2]” (pH 7.4, LogD7.4), `CCN(CC)CCNC(=O)c1c(C)[nH]c(/C=C2\C(=O)Nc3ccc(Cl)cc32)c1C` [SU-11652] yielded a pH-dependent lipophilicity (logD) of 2.75. Besides, in “in vitro [4]” (PPB), the fraction unbound at 5 h is 0.105.
On the same counts, the results for `COc1cc2nc(N3CCN(C(=O)C4CCCO4)CC3)nc(N)c2cc1OC` (centres undefined) [TERAZOSIN] are 0.9 and 0.204.
With `COc1ccc(C(CN(C)C)C2(O)CCCCC2)cc1` (centres undefined) [VENLAFAXINE], in “physchem [2]” (pH 7.4), the log distribution coefficient (logD) came to 0.99. Besides, the fraction unbound at 5 h in the data set “in vitro [4]” was 0.814.

Values taken from ChEMBL document CHEMBL3301361, “Experimental in vitro DMPK and physicochemical data on a set of publicly disclosed compounds”.
